Experimental data published in ChEMBL document CHEMBL5257045, “Antiparasitic Activity of Two Natural Terpenes from Salvia cuspidata against Leishmania amazonensis” (2023).
“And” between values parts separate entries of the source, which are not always exact repeats. Equal values may be shown once. The source made the active and inactive calls. The calls are words filed in the database; no cut-off is given here.

Columns and labels:
Leishmania donovani = test: Antileishmanial activity against Leishmania donovani MHOM/IN/83/AG83 promastigotes infected in BALB/c mouse assessed as reduction of parasite burden in spleen at 5 to 10 mg/kg per day; format: functional, organism-based; settings: dose 5-10 mg/kg
Leishmania amazonensis [1] = test: Antileishmanial activity against Leishmania amazonensis promastigotes infected in BALB/c mouse assessed as reduction of parasite burden at 400 mg/kg per day, ip administered for 30 days measured at 10 week by limit dilution assay; format: functional, organism-based; settings: time 30.0 day
Leishmania amazonensis [2] = test: Antileishmanial activity against Leishmania amazonensis promastigotes infected in BALB/c mouse assessed as wound closure at 400 mg/kg per day, ip administered for 30 days; format: functional, organism-based; settings: time 30.0 day
Leishmania amazonensis [3] = test: Antileishmanial activity against Leishmania amazonensis promastigotes infected in BALB/c mouse assessed as reduction of IgG1 level at 400 mg/kg per day, ip administered for 30 days measured at 10 week by ELISA assay; format: functional, organism-based; settings: time 30.0 day
Leishmania amazonensis [4] = test: Antileishmanial activity against Leishmania amazonensis promastigotes infected in BALB/c mouse assessed as reduction of IgG level at 400 mg/kg per day, ip administered for 30 days measured at 10 week by ELISA assay; format: functional, organism-based; settings: time 30.0 day
Leishmania amazonensis [5] = test: Antileishmanial activity against Leishmania amazonensis promastigotes infected in BALB/c mouse assessed as reduction of splenic index at 400 mg/kg per day, ip administered for 30 days measured at 10 week; format: functional, organism-based; settings: time 30.0 day
Leishmania amazonensis [6] = test: Antileishmanial activity against Leishmania amazonensis promastigotes infected in BALB/c mouse assessed as reduction in RHLF lesion size at 400 mg/kg per day, ip administered for 30 days; format: functional, organism-based; settings: time 30.0 day
Leishmania amazonensis [7] = test: Antileishmanial activity against Leishmania amazonensis promastigotes infected in BALB/c mouse assessed as reduction of IgG level at 1 mg/kg per day administered once a week for 4 weeks measured at 10 week by ELISA assay; format: functional, organism-based
Leishmania amazonensis [8] = test: Antileishmanial activity against Leishmania amazonensis MHOM/VE/84/MEL promastigotes assessed as parasite mortality at 14.3 uM measured after 2 day by dye exclusion method (reference value: 11.6 +/- 3.3); format: functional; settings: 48 h
Leishmania amazonensis [9] = test: Antileishmanial activity against Leishmania amazonensis promastigotes infected in BALB/c mouse assessed as reduction of IgG1 level at 1 mg/kg per day administered once a week for 4 weeks measured at 10 week by ELISA assay; format: functional, organism-based
Leishmania amazonensis [10] = test: Induction of ROS generation in Leishmania amazonensis promastigotes assessed as reduction in endogenous GSH level at 4.3 to 29.2 uM incubated for 3 hrs by absorbance based analysis; format: functional, organism-based; settings: dose 4.3-29.2 µM
Leishmania amazonensis [11] = test: Antileishmanial activity against Leishmania amazonensis MHOM/VE/84/MEL promastigotes assessed as parasite mortality at 4.3 uM measured after 1 day by dye exclusion method (reference value: 14.5 +/- 3.5); format: functional; settings: 24 h
Leishmania amazonensis [12] = test: Antileishmanial activity against Leishmania amazonensis promastigotes infected in BALB/c mouse assessed as reduction in RHLF lesion size at 1 mg/kg per day administered once a week for 4 weeks measured at 10 week; format: functional, organism-based
Leishmania amazonensis [13] = test: Antileishmanial activity against Leishmania amazonensis MHOM/VE/84/MEL promastigotes assessed as parasite mortality at 29.2 uM measured after 1 day by dye exclusion method (reference value: 14.5 +/- 3.5); format: functional; settings: 24 h
Leishmania amazonensis [14] = test: Induction of ROS generation in Leishmania amazonensis promastigotes at 4.3 to 29.2 uM incubated for 48 hrs followed by probe addition measured after 1 hr by H2DCFDA probe based fluorometry analysis; format: functional, organism-based; settings: dose 4.3-29.2 µM, time 49.0 hrs
Leishmania amazonensis [15] = test: Antileishmanial activity against Leishmania amazonensis MHOM/VE/84/MEL promastigotes assessed as parasite mortality at 4.3 uM measured after 2 day by dye exclusion method (reference value: 11.6 +/- 3.3); format: functional; settings: 48 h
Leishmania amazonensis [16] = test: Antileishmanial activity against Leishmania amazonensis promastigotes infected in BALB/c mouse assessed as reduction of splenic index at 1 mg/kg per day administered once a week for 4 weeks measured at 10 week; format: functional, organism-based
Leishmania amazonensis [17] = test: Antileishmanial activity against Leishmania amazonensis promastigotes infected in BALB/c mouse assessed as reduction of parasite burden at 1 mg/kg per day administered once a week for 4 weeks measured at 10 week by limit dilution assay; format: functional, organism-based
Leishmania amazonensis [18] = test: Antileishmanial activity against Leishmania amazonensis MHOM/VE/84/MEL promastigotes assessed as parasite mortality at 29.2 uM measured after 2 day by dye exclusion method (reference value: 11.6 +/- 3.3); format: functional; settings: 48 h
Leishmania amazonensis [19] = test: Antileishmanial activity against Leishmania amazonensis MHOM/VE/84/MEL promastigotes assessed as parasite mortality at 14.3 uM measured after 1 day by dye exclusion method (reference value: 14.5 +/- 3.5); format: functional; settings: 24 h
Leishmania amazonensis [20] = test: Induction of ROS generation in Leishmania amazonensis promastigotes assessed as reduction in mitochondrial activity at 4.3 to 29.2 uM incubated for 48 hrs by MTT assay; format: functional, organism-based; settings: dose 4.3-29.2 µM
Leishmania amazonensis [21] = test: Antileishmanial activity against Leishmania amazonensis MHOM/VE/84/MEL promastigotes assessed as parasite mortality at 38.4 uM measured after 1 day by dye exclusion method (reference value: 14.5 +/- 3.5); format: functional; settings: 24 h
Leishmania amazonensis [22] = test: Antileishmanial activity against Leishmania amazonensis MHOM/VE/84/MEL promastigotes assessed as parasite mortality at 38.4 uM measured after 2 day by dye exclusion method (reference value: 11.6 +/- 3.3); format: functional; settings: 48 h

Compound	Activity (Leishmania amazonensis [7])	mortality at 14.3 µM (Leishmania amazonensis [8]) [%]	Activity (Leishmania amazonensis [9])	Activity (Leishmania amazonensis [10])	mortality (Leishmania amazonensis [11])	Activity (Leishmania amazonensis [12])	mortality at 29.2 µM (Leishmania amazonensis [13]) [%]	Activity (Leishmania amazonensis [14])	mortality at 4.3 µM (Leishmania amazonensis [15]) [%]	Activity (Leishmania amazonensis [16])	Activity (Leishmania amazonensis [17])	mortality at 29.2 µM (Leishmania amazonensis [18]) [%]	mortality at 14.3 µM (Leishmania amazonensis [19]) [%]	Activity (Leishmania amazonensis [20])	other results
C[C@@H]1CC[C@H]2[C@@H](C)C(=O)O[C@@H]3O[C@@]4(C)CC[C@@H]1[C@]32OO4															Activity (Leishmania donovani): Active
MEGLUMINE ANTIMONATE															Activity (Leishmania amazonensis [1]): Active; Activity (Leishmania amazonensis [2]): inactive; Activity (Leishmania amazonensis [3]): Active; Activity (Leishmania amazonensis [4]): Active; Activity (Leishmania amazonensis [5]): Active; Activity (Leishmania amazonensis [6]): Active
C[C@@]12CCC[C@]3(COC1=O)CC1=C(C=C[C@@H]32)C(=O)C=C(O)C1=O	Active	92	Active	Active	33.5% and 87.5%	Active	96.5	Active	87.5	Active	Active	98.5	55	Active	
CC(C)C1=C(O)C(=O)C2=C(C=C[C@H]3[C@]4(CCC[C@]3(C)C(=O)O4)C2)C1=O	Active	51.5	Active	Active	10% and 26.5%	Active	65	Active	26.5	Active	Active	77.5	47	Active	
CC(=O)N1CCN(c2ccc(OCC3COC(Cn4ccnc4)(c4ccc(Cl)cc4Cl)O3)cc2)CC1 (configuration not stated) [KETOCONAZOLE]															mortality at 38.4 µM (Leishmania amazonensis [21]): 48.5%; mortality at 38.4 µM (Leishmania amazonensis [22]): 79.4%
